We go through 7 molecules from article PMC10376129, “Mechanistic Understanding of Idiosyncratic Drug-Induced Hepatotoxicity Using Co-Cultures of Hepatocytes and Macrophages” (Antioxidants, 2023).

In series [1] the test system is THP-1 cells. The series can be described thus: Viability of THP-1 cells after differentiation to pro-inflammatory macrophages. The series is classed as cell-based, human. To be noted: PMA 50 ng/mL for differentiation followed by LPS and IFN-γ. On the procedure: (§1) THP-1 cells were differentiated to macrophages via incubation with phorbol-12-myrsitate 13-acetate (PMA, 20 or 50 ng/mL) for 72 h. After differentiation, THP-1 cells became adherent with typical macrophage morphology. To generate M1 macrophages, cells were then stimulated with LPS (1 µg/mL) in the presence or absence of interferon γ (IFN-γ) (20 ng/mL) as described in Figure 1.

The subject of series [2] is HepG2 cells and co-cultures at different ratios (1:10, 1:5, and 1:2). The series can be described thus: Gene expression (RT-qPCR) of oxidative stress, GSH-related and apoptotic genes in treated cultures. Type of series: cell-based, human. The text has this:
Total RNA was extracted using the RNeasy Plus Mini Kit (Qiagen, Madrid, Spain), and was reverse transcribed as described elsewhere. Diluted cDNA was amplified using LightCycler DNA Master SYBR Green I (Roche Applied Science, Barcelona, Spain) and the appropriate primers (Supplementary Table S2) were amplified using a LightCycler 480 Instrument (Roche Applied Science, Barcelona, Spain). For normalization, porphobilinogen deaminase (PBGD), TATA box binding protein (TBP), Large Ribosomal Subunit Protein UL10 (RPLP0), and actin were used. During each amplification, a reference calibrator cDNA, made from a pool of human livers, was included. The relative mRNA expression was calculated using the LightCycler Relative Quantification Analysis software verson 1.5.0.39. Based on PCR efficiencies and the cycle thresholds, the relative concentration of the target and reference cDNAs and their ratio were determined. Additionally, gene expression analysis of test systems alone or treated with the selected toxic compounds was also performed as indicated in Section 2.3.2. For toxicotranscriptomics studies, cells were seeded in P12-well plates at a density of 47,000 cells/cm^2.

Series [3] has as its system HepG2 cells. The series can be described thus: MTT cytotoxicity in HepG2 monocultures. The settings on record: for CC50: Homo sapiens, HepG2 monoculture, 24 h exposure, in presence of LPS and IFN-γ, read-out: IC50 values; for effects on the viability: LPS and IFN-γ together, HepG2 cells, Supplementary Figure S1. Type of series: cell-based, human. On the procedure:
HepG2 cells (ECACC No. 85011430) were cultured in Ham’s F-12/Leibovitz L-15 (1:1 v/v), supplemented with 7% FBS, 50 U of penicillin/mL, and 50 μg of streptomycin/mL.
HepG2 cells were seeded at a density of 47,000 cells/cm^2 as a monoculture control for all the experiments.
(§2) For the toxicity studies, HepG2 cells alone or in co-culture with different proportions of M1 macrophages were seeded in 96-well plates (15,000 cells/well) and were allowed to grow and equilibrate for 24 h. Then, cells were exposed for 24 h to eight concentrations of the tested compounds (TVX, LVX, TGZ, RGZ). Each experimental condition was assayed in triplicate wells. Test compounds were diluted in DMSO, and then easily diluted in the culture medium to obtain the desired final concentrations (Table 1). The final DMSO concentration in the culture medium never exceeded 0.5% (v/v), and the control cultures were treated with the same amount of solvent.
(§3) Cytotoxicity was assessed by means of the tetrazolium reduction colorimetric assay (MTT test) as previously described in detail.

Series [4] has as its system co-cultures of HepG2 and M1-THP-1 cells. The series can be described thus: MTT cytotoxicity in direct co-cultures of HepG2 and M1-THP-1 macrophages. The settings on record: Homo sapiens, HepG2, 24 h, 24 h exposure. The series is classed as cell-based. The protocol: as §1
For subculturing purposes, cells (HepG2 or THP-1) were detached via treatment with 0.25% trypsin/0.02% EDTA at 37 °C. In order to determine the effect of pro-inflammatory macrophages on HepG2 cells, different co-culture conditions were tested. Co-culture proportions were 1:10, 1:5, and 1:2 (M1:HepG2), respectively. Cells were seeded at 47,000 cells/cm^2 per condition and co-culture media consisted of HepG2 and M1-THP-1 cell culture media (1:1). The schedule followed for co-culturing HepG2 cells and M1-THP-1 macrophages is exemplified in Figure 2.
as §2, §3

Series [5] relates to HepG2 monocultures and different co-cultures of HepG2 and M1-THP-1 cells. The series can be described thus: Concentration-dependent toxicity compared across test systems (MTT viability). Type of series: cell-based. The settings on record: 24 h exposure; for concentrations producing significant cell death / decrease in viability: Figure 6; for effect on viability in co-cultures compared to monocultures of HepG2 cells: co-culture ratios 1:10, 1:5, 1:2. The protocol:
as §2, §3
Data represent triplicate measurements and are expressed as the mean ± SD. Student’s t-test was used for statistical evaluations between two groups, whereas one-way ANOVA followed by Tukey’s multiple comparisons test was used when comparing 3 or more groups. The level of significance was chosen as p < 0.05 and calculated using GraphPad Prism v. 8.4.3.

On the set-up of series [6]: method as in PMID 18524759. To be noted: cited from earlier work.
Setting [7] is: 100 µM, compared to non-treated cells.

What is called IC50 is the concentration at which inhibition is half-maximal. Broadly, the Cmax is the peak of the concentration-time curve.

Entries after “also recorded” stand apart in the source; their conditions may differ. Some results are limits rather than exact numbers.

Molecule `CCCCCCCCCCCCCC(=O)O[C@@H]1[C@@H](C)[C@@]2(O)[C@@H](C=C(CO)C[C@]3(O)C(=O)C(C)=C[C@@H]23)[C@@H]2C(C)(C)[C@]12OC(C)=O` [PMA, phorbol-12-myrsitate 13-acetate] showed a viability after differentiation in series [1] of 79 ± 5.

Turning to `N[C@@H]1[C@H]2CN(c3nc4c(cc3F)c(=O)c(C(=O)O)cn4-c3ccc(F)cc3F)C[C@@H]12` [Trovafloxacin], the “mRNA levels of Nfr2 pathway, GSH-related enzymes and apoptotic genes” value (“mRNA levels of Nfr2 pathway” below) in series [2] (25 µM, 24 h, compared to non-treated cultures, listed as TVX) is “reduced the GSTT1, GSTT2, GSTA2, GSTA4, NNQO1, GPX1, GPX2, and GPX4 levels in all the culture conditions; also recorded: Increased levels of AT4 and SOD2”. The CC50 in series [3] amounted to 675 µM. In addition, the half-inhibitory concentration (IC50) was 531 µM in series [4] (Co-culture 1.10 (M1:HepG2)), 74 µM in series [4] (Co-culture 1.2 (M1:HepG2)) and 529 µM in series [4] (Co-culture 1.5 (M1:HepG2)). Further, in series [5], the “concentrations producing significant cell death / decrease in viability” value is “higher than 50 µM”. Further, in series [5], the “effect on viability in co-cultures compared to monocultures of HepG2 cells” value (shortened to “effect … compared to monocultures of HepG2 cells”) is listed as “A synergistic effect was detected in the co-cultures”. Also, the Cmax in series [6] is 4.1 µM.

On to lipopolysaccharide [LPS], for which the “effects on the viability” value in series [3] is given as “No significant effects on the viability”.

For the molecule `Cc1c(C)c2c(c(C)c1O)CCC(C)(COc1ccc(CC3SC(=O)NC3=O)cc1)O2` (stereo not drawn) [Troglitazone], the “mRNA levels of Nfr2 pathway” value in series [2] (setting [7]) was “increased the GCLM, DDIT, and TXNRD1 levels and reduced the GSTA2, GSTA4, GSTT1, and GPX2 levels”. Further, the CC50 in series [3] amounted to 223 µM. Besides, the IC50 in series [4] (Co-culture 1.10 (M1:HepG2)) was 208 µM; in series [4] (Co-culture 1.2 (M1:HepG2)), 188 µM; in series [4] (Co-culture 1.5 (M1:HepG2)), 203 µM. Moreover, the “concentrations producing significant cell death / decrease in viability” value in series [5] is “higher than 100 µM”. The “effect … compared to monocultures of HepG2 cells” value in series [5] was “decrease in the viability was more significant in the co-cultures at the highest ratios of M1 cells”.

With `CN(CCOc1ccc(CC2SC(=O)NC2=O)cc1)c1ccccn1` (stereo not drawn) [Rosiglitazone], the “mRNA levels of Nfr2 pathway” value in series [2] (setting [7]) is “produced increases in the expression of GCLM, TXNRD1, and DDIT”. Besides, the CC50 in series [3] was more than 250 µM. The IC50 in series [4] (Co-culture 1.10 (M1:HepG2)), in series [4] (Co-culture 1.2 (M1:HepG2)) and in series [4] (Co-culture 1.5 (M1:HepG2)) was more than 250 µM in each case. For the same molecule, the “concentrations producing significant cell death / decrease in viability” value in series [5] is “higher than 200 µM”. Moreover, in series [5], the “effect … compared to monocultures of HepG2 cells” value is recorded as “no significant differences between the test systems were found”.

On to `C[C@H]1COc2c(N3CCN(C)CC3)c(F)cc3c(=O)c(C(=O)O)cn1c23` [Levofloxacin], for which the “mRNA levels of Nfr2 pathway” value in series [2] (25 µM, 24 h, compared to non-treated cultures) is reported as “did not significantly change the gene expression”. Besides, the CC50 in series [3] was more than 800 µM. The IC50 in series [4] (Co-culture 1.10 (M1:HepG2)), in series [4] (Co-culture 1.2 (M1:HepG2)) and in series [4] (Co-culture 1.5 (M1:HepG2)) was more than 800 µM throughout. Moreover, the “concentrations producing significant cell death / decrease in viability” value in series [5] was more than 750 µM. The “effect … compared to monocultures of HepG2 cells” value in series [5] was “no synergic effect was observed”. For the same molecule, the Cmax in series [6] is 15.7 µM.

B1: interferon γ (protein, UniProt P01579 24-161, looked up)
Interferon gamma: QDPYVKEAENLKKYFNAGHSDVADNGTLFLGILKNWKEESDRKIMQSQIVSFYFKLFKNFKDDQSIQKSVETIKEDMNVKFFNSNKKKRDDFEKLTNYSVTDLNVQRKAIHELIQVMAELSPAAKTGKRKRSQMLFRG
notes: cytokine used with LPS to generate M1 macrophages
B1: the “effects on the viability” value in series [3] is “No significant effects on the viability”.
